Series [1] deals with patients with treatment-resistant depression and/or treatment-resistant anxiety (TRD/TRA). Nature of the series: Study ZPS-603 Cohort 4: mood ratings (HAMA, FQ, MADRS), open label multiple ascending dose. As to conditions: injected drug in earlier treatment (FIG. 7). The class given is in vivo, human. On the procedure: The objective of Cohort 4 was to evaluate efficacy, safety, PK and PD of an extended release ketamine oral formulation in patients with treatment-resistant depression and/or treatment-resistant anxiety (TRD/TRA). […] The design was an open label multiple ascending dose study. The initial dose was 60 mg, and could be escalated by an additional 60 mg 12 hourly, based on assessment of mood symptoms, to a maximum dose of 240 mg, with a total of 7 doses given 12 hourly between 0 and 72 hours. Endpoints included safety, tolerability, ketamine and norketamine PK, and PD (mood ratings including the Fear Questionnaire (FQ; Marks 1979), HAMA and MADRS, and dissociative symptom rating scale scores).

A further series concerns TRD patients. As to conditions: Singh et al. 2016, cited from earlier work.
For series [2] the following is noted: injected by any route of administration (e.g. Loo 2016); cited from earlier work.

Structures are written as SMILES. Where two headings read alike, the source gives them in different places.

For `CNC1(c2ccccc2Cl)CCCCC1=O` (stereo not shown) [IV ketamine, 2-(2-chlorophenyl)-2-(methylamino)cyclohexan-1-one], in series [1], the “onset of improvement of anxiety symptoms” value lay in the range of 1 to 2 h. Besides, the TRD patients remitted in the series with TRD patients (0.5 mg/kg IV thrice weekly) is recorded as 23.1%; with TRD patients (0.5 mg/kg IV twice weekly for 15 days), 37.5%. For the same molecule, in series [2], the “duration of marked dissociative symptoms after dosing” value is reported as “up to 60 minutes”.
